{"source": "patent US7781580B2", "about": "“Stilbene derivatives as new cancer therapeutic agents” (Virginia Commonwealth University, priority 2007, dated 2010)", "key": {"[1]": {"test_system": "UCI101 cells", "experiment": "phospho-histone 3B mitotic marker staining", "assay_type": "cell-based", "description": "(§1) (a) In vitro sensitivity of UCI101 cells toward three potential stilbene prodrugs, 5a-c, was tested in 96-well plates using Alamar Blue™ assays to determine cell growth inhibition. […] (b) 5b induces cell cycle change and apoptosis in UCI101 cells. Cells were incubated with 5b at 1, 3, 10 μM for 16 hours followed by PI staining and flow cytometry analysis. A subG0/1 population, representing apoptotic cells, appeared along with a decrease of the G1/G2 ratio after cells were treated with 3 μM 5b. Higher concentration (10 μM) of 5b completely killed cells, as was the case with stilbene 4a at […]. (c) Cells treated with stilbene 4a and 5b were stained with phospho-histone 3B, a mitotic marker. The positive signals of phospho-histone 3B were shown in green and nuclei were stained with DAPI in blue. […] (d) In vivo efficacy of 5b compared with stilbene 4a. Nude mice were injected with UCI101 ovarian cancer cells and treated with 7 doses of 5b,c or stilbene 4a every 2-3 days. Tumor volume was calculated and plotted against days.\nThe in vitro efficacy of these three compounds was tested in UCI101 cells in 96-well plate format and stained with Alamar blue™, The growth suppression was calculated as was done similarly to other test compounds. […] A dose response was then performed with various concentrations of 5b in vitro. […]"}, "[2]": {"test_system": "MDA-MB231 cells", "experiment": "immunofluorescent staining of tubulin, MDA-MB231", "assay_type": "cell-based", "settings": "CA4 10 nM, stilbene 4a 100 nM, vincristine 100 nM, 5b 3 μM; 16 hours", "text": "Nuclei were stained with 4′,6-diamidino-2-phenylindole (DAPI). Control cells show the reticular pattern of the microtubule network."}, "[3]": {"test_system": "SKOV3 ovarian cancer cells", "experiment": "Alamar Blue cell growth inhibition, SKOV3", "assay_type": "cell-based", "how_it_was_run": "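SKOV3 cells at 50% confluence were treated 48 h with compounds, against 0.1% DMSO vehicle controls. Growth was read by Alamar Blue absorbance at 570 and 600 nm, with % growth inhibition from the manufacturer's extinction-coefficient formula. Each concentration was run in triplicate.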"}, "[4]": {"test_system": "Chk1−/− cells", "experiment": "cell cycle analysis, Chk1-/- MDA-MB231 derivative", "assay_type": "cell-based", "description": "Due to the structural similarity between stilbene 4a and CA4, we investigated the difference in the biological activity of these two compounds in MDA-MB231 breast cancer cells and their Chk2−/− derivatives. […] MDA-MB231 cells were treated with 10 nM stilbene 4a or 1 nM CA4. […] However, a difference in cell cycle change was observed following treatment with 30 nM of stilbene 4a versus 3 nM of CA4. […] This was also the case for cells treated with 100 nM stilbene 4a. A significant subG1/0 population was also noted. […] One possible effect could be a DNA damage response, which is a common mechanism of multiple chemotherapeutic agents but not one of pure microtubule-interfering agents such a paclitaxel or vincristine. […] We then obtained conditional Chk1−/− and Chk2−/− cells, which were derived from the same MDA-MB231 cells for the same flow cytometry analysis. […] In contrast, Chk2−/− cells were more sensitive to stilbene 4a. […] This mechanism is not obvious in higher drug concentrations at which the G2 arrest from microtubule interference is dominant. Therefore, in addition to their microtubule interfering effect, stilbenes have another mechanism to induce cell death. Thus, the use of a Chk2 inhibitor in combination with stilbenes may be a viable approach to enhancing the beneficial therapeutic effects of stilbenes."}, "[5]": {"test_system": "UCI101 ovarian cancer cells (xenograft)", "experiment": "UCI101 xenograft in nude mice", "assay_type": "in vivo", "settings": "mouse, in vivo", "description": "as §1\nWe next tested whether 5b could be converted into stilbene 4a in circulation. […] Blood was collected at 20, 60 and 240 min after injection for spot check of stilbene 4a level in serum. […] The in vivo efficacy of 5b and 5c was compared to stilbene 4a in a pilot study using 5 mice in each group."}, "[6]": {"test_system": "MDA-MB231 breast cancer cells", "experiment": "Alamar Blue cell growth inhibition, MDA-MB231", "assay_type": "cell-based", "settings": "based on previous IC50 data", "how_it_was_run": "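Cells at 50% confluence treated in triplicate for 48 hours with 0, 0.01, 0.03, 0.1, 0.3, 1.0, 3.0, 10 μM compound or 0.1% DMSO vehicle. Alamar Blue added at 1/10 volume for 2 hours, absorbance at 570 and 600 nm; percentage growth calculated against untreated cells using the extinction-coefficient formula.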"}}}
{"smiles": "COc1cc(/C=C\\c2ccc(OC)c(N)c2)cc(OC)c1", "note": "[4a, (Z)-5-[2-(3,5-Dimethoxy-phenyl)-vinyl]-2-methoxy-phenylamine]", "values": [{"measurement": "phospho-histone 3B positive cells", "setting": "[1]", "value": "dramatic increase in positive cells"}, {"measurement": "microtubule pattern", "setting": "[2]", "value": "did not completely disrupt microtubule formation"}, {"measurement": "IC50", "setting": "[3]; Homo sapiens, SK-OV-3", "value": "50 to 100", "unit": "nM"}, {"measurement": "effective / active concentration", "setting": "[3]; SKOV3, 48 hours", "value": 0.1, "unit": "µM"}, {"measurement": "sensitivity versus MDA-MB231", "setting": "[4]", "value": "more resistant"}, {"measurement": "mouse weight", "setting": "[5]", "value": "did not show any significant change"}, {"measurement": "times less potent than CA4", "setting": "[6]", "value": 10}]}
